Assay results as given in EP0221541A2, “Quinolonecarboxylic acid derivatives and their preparation” (KYORIN PHARMACEUTICAL CO., LTD., priority 1985, dated 1987).
In brackets after ≈: the same amount, converted by molar mass.

Tests used:
Assay type in all cases: cell-based
[1] = system: Proteus vulgaris IFO 3167; test: MIC, antibacterial spectrum (aerobic bacteria); conditions: Proteus vulgaris, IFO3167
Shigella sonnei IID 969 = test: MIC, antibacterial spectrum (aerobic bacteria); conditions: IID969, Shigella sonnei IID 969, Gram -, 10^6 cells/ml
Description: Minimal inhibitory concentrations (MICs) were determined in accordance with the method recommended by Japan Society of Chemotherapy.

P. mirabilis IID 994 = test: MIC, antibacterial spectrum (aerobic bacteria); conditions: Proteus mirabilis, IID994
[2] = system: Peptostreptococcus anaerobius KYA 27337; test: MIC, antibacterial spectrum (anaerobic bacteria); conditions: Peptostreptococcus anaerobius, KYA27337
Pst. micros UPI 5464-1 = test: MIC, antibacterial spectrum (anaerobic bacteria); conditions: Parvimonas micra, UPI54641, Pst. micros UPI 5464-1, Gram +, 10^6 cells/ml
S. pyogenes IID 692 = test: MIC, antibacterial spectrum (aerobic bacteria); conditions: Streptococcus pyogenes, IID692
[3] = system: Serratia marcescens IID 618; test: MIC, antibacterial spectrum (aerobic bacteria); conditions: Serratia marcescens, IID618
K. pneumoniae 1-220S = test: MIC, antibacterial spectrum (aerobic bacteria); conditions: Klebsiella pneumoniae, 1220S
[4] = system: Peptococcus magnus KY 017; test: MIC, antibacterial spectrum (anaerobic bacteria); conditions: Finegoldia magna, KY017
S. marcescens GN 7577 = test: MIC, antibacterial spectrum (aerobic bacteria); conditions: Serratia marcescens, GN7577
[5] = system: Veillonella parvula KYA 10790; test: MIC, antibacterial spectrum (anaerobic bacteria); conditions: KYA10790, Veillonella parvula KYA 10790, Gram -, 10^6 cells/ml
[6] = system: Pseudomonas aeruginosa V-1; test: MIC, antibacterial spectrum (aerobic bacteria); conditions: Pseudomonas aeruginosa, V1
B. fragilis 25285 = test: MIC, antibacterial spectrum (anaerobic bacteria); conditions: Bacteroides fragilis, 25285
P. maltophilia GIFU 2491 = test: MIC, antibacterial spectrum (aerobic bacteria); conditions: Stenotrophomonas maltophilia, GIFU2491
C. perfringens KYA 13123 = test: microbe, parasite or virus in culture; conditions: Clostridium perfringens, KYA13123
E. faecalis IID 682 = test: MIC, antibacterial spectrum (aerobic bacteria); conditions: Enterococcus faecalis, IID682
[7] = system: S. pyogenes IID 689 (S-8); test: MIC, antibacterial spectrum (aerobic bacteria); conditions: Streptococcus pyogenes, IID689
[8] = system: Fusobacterium necrophorum S-45; test: MIC, antibacterial spectrum (anaerobic bacteria); conditions: Fusobacterium necrophorum, S45
S. aureus Smith = test: MIC, antibacterial spectrum (aerobic bacteria); conditions: Staphylococcus aureus
[9] = system: Bacteroides fragilis GM 7000; test: MIC, antibacterial spectrum (anaerobic bacteria); conditions: Bacteroides fragilis, GM7000
B. fragilis 0558 = test: MIC, antibacterial spectrum (anaerobic bacteria); conditions: Bacteroides fragilis, 0558
[10] = system: Salmonella enteritidis IID 604; test: MIC, antibacterial spectrum (aerobic bacteria); conditions: Salmonella enterica
[11] = system: Staphylococcus aureus 209 P; test: MIC, antibacterial spectrum (aerobic bacteria); conditions: Staphylococcus aureus, 209P
[12] = system: Acinetobacter anitratus IID 876; test: MIC, antibacterial spectrum (aerobic bacteria); conditions: Acinetobacter calcoaceticus, IID876
P. aeruginosa IFO 12689 = test: MIC, antibacterial spectrum (aerobic bacteria); conditions: Pseudomonas aeruginosa, IFO12689
[13] = system: Alcaligenes faecalis 0114002; test: MIC, antibacterial spectrum (aerobic bacteria); conditions: Alcaligenes faecalis 0114002, Gram -, 10^6 cells/ml
E. coli ATCC 10536 = test: MIC, antibacterial spectrum (aerobic bacteria); conditions: Escherichia coli, ATCC10536
C. ramosum = test: MIC, antibacterial spectrum (anaerobic bacteria); conditions: Thomasclavelia ramosa
E. coli ML 4707 = test: MIC, antibacterial spectrum (aerobic bacteria); conditions: Escherichia coli, ML4707
[14] = system: Bacillus subtilis PCI 219; test: MIC, antibacterial spectrum (aerobic bacteria); conditions: Bacillus subtilis, PCI219
[15] = system: B. thetaiotaomicron (0661); test: MIC, antibacterial spectrum (anaerobic bacteria); conditions: Bacteroides thetaiotaomicron
[16] = system: Klebsiella pneumoniae KY(GN)6445; test: MIC, antibacterial spectrum (aerobic bacteria); conditions: Klebsiella pneumoniae
S. epidermidis IID 866 = test: MIC, antibacterial spectrum (aerobic bacteria); conditions: Staphylococcus epidermidis, IID866
[17] = system: Yersinia enterocolitica IID 981; test: MIC, antibacterial spectrum (aerobic bacteria); conditions: Yersinia enterocolitica, IID981
[18] = system: Escherichia coli NIHJ JC-2; test: MIC, antibacterial spectrum (aerobic bacteria); conditions: NIHJJC2, Escherichia coli NIHJ JC-2, Gram -, 10^6 cells/ml
B. distasonis 8503 = test: MIC, antibacterial spectrum (anaerobic bacteria); conditions: Parabacteroides distasonis, 8503
P. aeruginosa IID 1210 = test: MIC, antibacterial spectrum (aerobic bacteria); conditions: Pseudomonas aeruginosa, IID1210
[19] = system: Propionibacterium acens 11828; test: MIC, antibacterial spectrum (anaerobic bacteria); conditions: Propionibacterium, 11828
[20] = system: Eubacterium lentum GAI 5242; test: MIC, antibacterial spectrum (anaerobic bacteria); conditions: Eggerthella lenta, GAI5242
P. cepacia GIFU 518 = test: MIC, antibacterial spectrum (aerobic bacteria); conditions: Burkholderia cepacia, GIFU518
[21] = system: S. aureus IID 670 (Terajima); test: MIC, antibacterial spectrum (aerobic bacteria); conditions: Staphylococcus aureus, IID670
[22] = system: Citrobacter freundii IID 976; test: MIC, antibacterial spectrum (aerobic bacteria); conditions: Citrobacter freundii, IID976
[23] = system: Streptococcus pneumoniae IID 552; test: MIC, antibacterial spectrum (aerobic bacteria); conditions: Streptococcus pneumoniae, IID552

Structure (SMILES): O=C(O)c1cn(C2CC2)c2cc(N3CCNCC3)c(F)cc2c1=O [CPFX, Ciprofloxacin, reference compound]
- MIC [1]: 0.0125 µg/mL (≈ 0.0377 µM)
- MIC (Shigella sonnei IID 969): 0.0125 µg/mL (≈ 0.0377 µM)
- MIC (P. mirabilis IID 994): 0.0125 µg/mL (≈ 0.0377 µM)
- MIC [2]: 1.56 µg/mL (≈ 4.71 µM)
- MIC (Pst. micros UPI 5464-1): 0.2 µg/mL (≈ 0.604 µM)
- MIC (S. pyogenes IID 692): 0.78 µg/mL (≈ 2.35 µM)
- MIC [3]: 0.05 µg/mL (≈ 0.151 µM)
- MIC (K. pneumoniae 1-220S): 0.05 µg/mL (≈ 0.151 µM)
- MIC [4]: 0.39 µg/mL (≈ 1.18 µM)
- MIC (S. marcescens GN 7577): 0.39 µg/mL (≈ 1.18 µM)
- MIC [5]: 0.2 µg/mL (≈ 0.604 µM)
- MIC [6]: 0.05 µg/mL (≈ 0.151 µM)
- MIC (B. fragilis 25285): 6.25 µg/mL (≈ 18.9 µM)
- MIC (P. maltophilia GIFU 2491): 0.39 µg/mL (≈ 1.18 µM)
- MIC (C. perfringens KYA 13123): 0.39 µg/mL (≈ 1.18 µM)
- MIC (E. faecalis IID 682): 0.78 µg/mL (≈ 2.35 µM)
- MIC [7]: 0.78 µg/mL (≈ 2.35 µM)
- MIC [8]: 1.56 µg/mL (≈ 4.71 µM)
- MIC (S. aureus Smith): 0.39 µg/mL (≈ 1.18 µM)
- MIC [9]: 6.25 µg/mL (≈ 18.9 µM)
- MIC (B. fragilis 0558): 3.13 µg/mL (≈ 9.45 µM)
- MIC [10]: 0.0125 µg/mL (≈ 0.0377 µM)
- MIC [11]: 0.2 µg/mL (≈ 0.604 µM)
- MIC [12]: 0.1 µg/mL (≈ 0.302 µM)
- MIC (P. aeruginosa IFO 12689): 0.2 µg/mL (≈ 0.604 µM)
- MIC [13]: 0.2 µg/mL (≈ 0.604 µM)
- MIC (E. coli ATCC 10536): 0.0125 µg/mL (≈ 0.0377 µM)
- MIC (C. ramosum): 12.5 µg/mL (≈ 37.7 µM)
- MIC (E. coli ML 4707): 0.0125 µg/mL (≈ 0.0377 µM)
- MIC [14]: 0.05 µg/mL (≈ 0.151 µM)
- MIC [15]: 12.5 µg/mL (≈ 37.7 µM)
- MIC [16]: 0.0125 µg/mL (≈ 0.0377 µM)
- MIC (S. epidermidis IID 866): 0.2 µg/mL (≈ 0.604 µM)
- MIC [17]: 0.05 µg/mL (≈ 0.151 µM)
- MIC [18]: ≤ 0.0063 µg/mL
- MIC (B. distasonis 8503): 6.25 µg/mL (≈ 18.9 µM)
- MIC (P. aeruginosa IID 1210): 0.2 µg/mL (≈ 0.604 µM)
- MIC [19]: 12.5 µg/mL (≈ 37.7 µM)
- MIC [20]: 0.78 µg/mL (≈ 2.35 µM)
- MIC (P. cepacia GIFU 518): 0.39 µg/mL (≈ 1.18 µM)
- MIC [21]: 0.2 µg/mL (≈ 0.604 µM)
- MIC [22]: 0.0125 µg/mL (≈ 0.0377 µM)
- MIC [23]: 0.78 µg/mL (≈ 2.35 µM)
